The record followed here is PubChem BioAssay (NCI).

What all share (assay): NCI tumour cell line growth inhibition, 48 h
Assay [1] deals with ACHN renal.
Assay [2] concerns NCI-H460 lung.
The test system of assay [3] is OVCAR-4 ovarian.
The test system of assay [4] is RPMI-8226 leukemia.
The subject of assay [5] is SF-295 CNS.
Assay [6] deals with SNB-75 CNS.
Assay [7] has as its system UO-31 renal.
Assay [8] deals with HCC-2998 colon.
Assay [9] relates to OVCAR-5 ovarian.
In assay [10] the test system is MALME-3M melanoma.

Structures are written as SMILES.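 Five concentrations, 48 hours, 96-well plates. GI50 marks 50% less growth. The concentration for full growth arrest is given as TGI.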

As to `c1ccc(SC(Sc2ccccc2)=C2CCC2)cc1`, the TGI in assay [1], in assay [2], in [3], in assay [4], in [5] and in assay [6] was over 100 µM in each case. In assay [7], the TGI is over 100 µM.

As for `COC(=O)/C=C1/SC(=Nc2cccc(Cl)c2)N(CCc2c[nH]c3ccc(O)cc23)C1=O`, the GI50 in [1] is 1.73 µM; in assay [8] it was 1.88 µM; in [2] it was 2.04 µM; in assay [3] it was 1.4 µM; in [9], 1.92 µM; in assay [4], 1.24 µM. Also, the GI50 in assay [5] was 1.85 µM; in assay [6] it was 2.11 µM; in assay [7] it was 1.43 µM. For the same compound, the TGI in [1] was determined as 3.33 µM; in assay [8], 3.48 µM; in assay [2], 4.1 µM; in [3], 4.44 µM; in [9] it was 4.07 µM; in assay [4], 3.98 µM. Also, the TGI in assay [5] was found to be 4.15 µM; in [6], 5.1 µM; in assay [7], 2.88 µM.

Regarding `CCCCCCCCCCCCSC(=S)c1c(C)[nH]n(-c2ccccc2)c1=O`, the TGI in assay [1] was over 50 µM; in [8] it was 21.5 µM; in assay [10] it was 39.8 µM; in assay [3], over 50 µM; in assay [9] it was over 50 µM; in assay [4], over 50 µM. Also, the TGI came to 35.6 µM in [5] and 38.9 µM in assay [7].

Regarding `CSc1cc([C@@H]2C[C@H]2c2ccc(Cl)cc2)on1`, the GI50 in assay [1] is 13.9 µM; in assay [8] it was 1.25 µM; in [2], 19 µM; in assay [3], 31.3 µM; in [9], 14.5 µM; in [4] it was 22.7 µM. In addition, the GI50 was 34.1 µM in assay [5], 21.3 µM in assay [6] and 21.6 µM in assay [7]. Besides, the TGI in assay [1] is over 100 µM; in assay [8], 15 µM; in [2] it was 43 µM; in assay [3], over 100 µM; in assay [9], 35.2 µM; in assay [4], 44.8 µM. Further, the TGI is 69.2 µM in assay [5], 49.5 µM in assay [6] and over 100 µM in [7].

`Cc1ccc(OP(=O)(Oc2ccc(C)cc2)N2C=Cc3ccccc3C2C#N)cc1` (stereo unspecified): the TGI in assay [1], in assay [10], in [2], in assay [3], in [9] and in assay [4] was over 100 µM each time. Further, the TGI in assay [5], in [6] and in assay [7] was over 100 µM in each case.

Turning to `COc1nc(N)nc2c1ncn2C1CC(O)C(CO)O1` (stereo unspecified), the TGI in [1], in [10], in assay [2], in assay [3], in [9] and in assay [4] was over 100 µM each time. Further, the TGI in [5], in [6] and in assay [7] was over 100 µM in each case.

Consider `Cc1cc(OCc2nnc3n2S(=O)(=O)c2ccccc2N3C)ccc1Cl`, for which the TGI in assay [1] is 53 µM; in [8], over 100 µM; in assay [2], over 100 µM; in assay [3], 24.2 µM; in assay [9] it was over 100 µM; in [5], 50.2 µM. In [7], this compound displayed a TGI of over 100 µM.

Take `O=[N+]([O-])c1nccn1CC(O)c1ccccc1` (stereo unspecified): the TGI in assay [1], in assay [10], in [2], in [3], in assay [9] and in assay [4] was over 100 µM each time. Moreover, the TGI in [5], in [6] and in assay [7] was over 100 µM in each case.

`CCOC(=O)C(=Cc1ccc(C#N)cc1)C(=O)OCC`: the GI50 is 1.78 µM in assay [1]; 1.81 µM in assay [8]; 4.2 µM in assay [2]; 3.44 µM in [3]; 2.61 µM in assay [9]; 2.65 µM in [4]. Also, the GI50 in [5] is 8.56 µM; in assay [6] it was 2.17 µM; in assay [7] it was 1.65 µM. Moreover, the TGI was determined as 3.46 µM in assay [1]; 3.43 µM in assay [8]; 16 µM in [2]; 12.6 µM in assay [3]; 11.2 µM in [9]; 7.71 µM in [4]. Also, the TGI in assay [5] amounted to 21.2 µM; in [6] it was 10.5 µM; in assay [7], 3.49 µM.

In the case of `NC(=S)N/N=C/c1ccc(OC(=O)COc2cc(Cl)c(Cl)cc2Cl)cn1`, the GI50 was 3.03 µM in [1]; 5.84 µM in assay [8]; 4.96 µM in assay [10]; 6.1 µM in assay [2]; 4.83 µM in assay [3]; 50.7 µM in assay [9]. For the same compound, the GI50 in assay [4] was 7.29 µM; in assay [7], 3.18 µM. Also, the TGI in [1], in assay [8], in assay [10], in assay [2], in assay [3] and in [9] was over 100 µM in each case. In addition, the TGI in assay [4] and in assay [7] was over 100 µM in each case.

As to `Cc1ccc(OCC2CO2)c(Br)c1` (stereo unspecified), the TGI in assay [1] is 21.2 µM; in [8] it was 34.8 µM; in assay [10] it was over 100 µM; in assay [2], 66 µM; in assay [3], 29.4 µM; in [9], 34.6 µM. Also, the TGI in assay [4] was 74.9 µM; in assay [5], 63.7 µM; in [7], 39.1 µM.

Take `Nc1ncc(-c2ccc3ncnc(Nc4cccc(Cl)c4)c3c2)cn1`: the GI50 was 0.0232 µM in [1]; 0.206 µM in assay [4]; 0.216 µM in [5]; 0.109 µM in assay [6]; 0.452 µM in [7]. The TGI in assay [6] is 0.695 µM; in [7], over 100 µM.

On to `CC(=O)OC12C(C)=C(C)C(=O)N1c1ccccc1N2C(C)=O` (stereo unspecified), for which the TGI in [1], in [8], in assay [2], in [3], in [9] and in assay [4] was over 100 µM throughout. For the same compound, the TGI in assay [5], in [6] and in assay [7] was over 100 µM each time.

With `Oc1ccccc1-c1nn(CNc2ccc(Cl)cc2)c(=S)o1`, the GI50 in assay [2] was 25.7 µM; in [9] it was over 100 µM; in [4], over 100 µM; in assay [5], over 100 µM; in assay [7], over 100 µM. Moreover, the TGI in assay [2], in assay [9], in [4], in assay [5] and in assay [7] was over 100 µM throughout.

Take `CC1=CCC2CC1C(C(=O)c1c[nH]c3ccccc13)=NC2(C)C` (stereo unspecified): the TGI in [1], in assay [8], in assay [10], in [2], in [3] and in [9] was over 100 µM throughout. Moreover, the TGI in assay [4] and in assay [7] was over 100 µM throughout.

As to `NC(=O)CC1OC(=O)Cc2cc3c(c(O)c21)C(=O)c1c(O)cccc1C3=O` (stereo unspecified), the TGI in [1], in [8], in assay [10], in assay [2], in [3] and in assay [9] was over 100 µM in each case. The TGI in [5] and in assay [7] was over 100 µM throughout.

Regarding `COc1ccc2cc(-c3cnc4nonc4n3)ccc2c1`, the GI50 is 4.33 µM in [1]; 2.32 µM in assay [8]; 4.03 µM in assay [10]; 11 µM in assay [2]; 5.99 µM in assay [3]; 6 µM in [9]. Also, the GI50 in assay [4] was 0.685 µM; in assay [5] it was 2.08 µM; in assay [7], 3.23 µM. Also, the TGI in [1], in [8], in [10], in assay [2], in assay [3] and in [9] was over 100 µM each time. Moreover, the values for the TGI in [4], in assay [5] and in [7] were 17.5 µM, over 100 µM and over 100 µM, respectively.

Regarding `COc1ccc(NC(=O)Oc2ccc3c(C)cc(=O)oc3c2)c(OC)c1` (tested in a mixture with another compound), the TGI in assay [1], in assay [8], in assay [10], in [2], in assay [3] and in assay [9] was over 100 µM throughout. The TGI in [4], in [5] and in [7] was over 100 µM throughout.

For `CCOC(=O)C12CCCC1(O)N(NC(=O)OC)C(C)=C2C(=O)OC` (stereo unspecified), the TGI in [1], in assay [8], in [10], in assay [2], in [3] and in assay [9] was over 100 µM in each case. Besides, the TGI in assay [4] is over 100 µM; in [5] it was over 10 µM; in assay [7] it was over 100 µM.
